Starred links: 1 amine or outer side, 2 acyl side, 3 side chain; linkers in the order of their positions; H or OH if unused. Non-standard residues stand in square brackets, D forms with d. Residues, ends and D or L forms follow the SMILES beside them. *: point of attachment. dAla(cis-4-NHCOPyz-cHex) = N[C@H](C[C@H]1CC[C@@H](NC(=O)c2cnccn2)CC1)C(=O)O; X1 = O=C(N[C@H]1CC[C@@H](C[C@@H](N[*:1])C(=O)[*:2])CC1)c1ccccn1; X2 = O=C(N[C@H]1CC[C@@H](C[C@H](N[*:1])C(=O)[*:2])CC1)c1cnccn1; X7 = O=C(N[C@H]1CC[C@H](C[C@@H](N[*:1])C(=O)[*:2])CC1)c1cccnc1; dPhe(3,4-Cl2) = N[C@H](Cc1ccc(Cl)c(Cl)c1)C(=O)O; X5 = O=C([C@H](CCCCNC1CCCC1)N[*:1])[*:2]; dPhe(4-Cl) = N[C@H](Cc1ccc(Cl)cc1)C(=O)O; d2Nal = N[C@H](Cc1ccc2ccccc2c1)C(=O)O; dLys(Me2) = CN(C)CCCC[C@@H](N)C(=O)O; Lys(iPr) = CC(C)NCCCC[C@H](N)C(=O)O; Pyrazinecarbonyl = O=C(c1cnccn1)*; d3Pal = N[C@H](Cc1cccnc1)C(=O)O; Nicotinoyl = O=C(c1cccnc1)*; Picolinoyl = O=C(c1ccccn1)*; Pip = O=C(O)[C@@H]1CCCCN1; Orn = NCCC[C@H](N)C(=O)O; Abu = CC[C@H](N)C(=O)O
Tested on: anaesthesized rats
Assay: wheal test, intradermal injection
Type: in vivo, rat
Parameters: Wheal (wheal response): unit not given here
Conditions: for Wheal Area / Wheal: 10 ug peptide intradermally; for Wheal: Table I
Procedure, shortened: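 Anaesthetized rats given intradermal injection of 10 ug peptide in 100 ul saline; area of the wheal calculated from its diameter.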

SMILES	Wheal Area [mm^2 /10 μg]	Wheal (wheal response) (Table XIV and text, unit not given)	Wheal [mm^2 /10]
CC(=O)N[C@H](Cc1ccc2ccccc2c1)C(=O)N[C@H](Cc1ccc(Cl)cc1)C(=O)N[C@H](Cc1cccnc1)C(=O)N[C@@H](CO)C(=O)N[C@@H](CCCCNC(=O)c1cccnc1)C(=O)N[C@H](C[C@H]1CC[C@H](NC(=O)c2cccnc2)CC1)C(=O)N[C@@H](CC(C)C)C(=O)N[C@@H](CCCCNC(C)C)C(=O)N1CCC[C@H]1C(=O)N[C@H](C)C(N)=O [IBR 25647] (Ac-[d2Nal][dPhe(4-Cl)][d3Pal]SK(Nicotinoyl)[X7]L[Lys(iPr)]P[dA]-NH2)	119.5 ± 3.2		
CC(=O)N[C@H](Cc1ccc2ccccc2c1)C(=O)N[C@H](Cc1ccc(Cl)cc1)C(=O)N[C@H](Cc1cccnc1)C(=O)N[C@@H](CO)C(=O)N[C@@H](CCCCNC(=O)c1cccnc1)C(=O)N[C@@H](CCCCNC(=O)c1cccnc1)C(=O)N[C@@H](CC(C)C)C(=O)N[C@@H](CCCCNC(C)C)C(=O)N1CCC[C@H]1C(=O)N[C@H](C)C(N)=O [compound 24934] (Ac-[d2Nal][dPhe(4-Cl)][d3Pal]SK(Nicotinoyl)K(Nicotinoyl)L[Lys(iPr)]P[dA]-NH2)			123 ± 5.9
CC(=O)N[C@H](Cc1ccc2ccccc2c1)C(=O)N[C@H](Cc1ccc(Cl)cc1)C(=O)N[C@H](Cc1cccnc1)C(=O)N[C@@H](CO)C(=O)N[C@@H](Cc1ccc(O)cc1)C(=O)N[C@H](CCCCNC(=O)c1cccnc1)C(=O)N[C@@H](CC(C)C)C(=O)N[C@@H](CCCN)C(=O)N1CCC[C@H]1C(=O)N[C@H](C)C(N)=O [compound 24748] (Ac-[d2Nal][dPhe(4-Cl)][d3Pal]SY[dK](Nicotinoyl)L[Orn]P[dA]-NH2)			129.4
CC(=O)N[C@H](Cc1ccc2ccccc2c1)C(=O)N[C@H](Cc1ccc(Cl)cc1)C(=O)N[C@H](Cc1cccnc1)C(=O)N[C@@H](CO)C(=O)N[C@@H](CCCCNC(=O)c1cccnc1)C(=O)N[C@H](CCCCN(C)C)C(=O)N[C@@H](CC(C)C)C(=O)N[C@@H](CCCCNC(C)C)C(=O)N1CCC[C@H]1C(=O)N[C@H](C)C(N)=O [compound 25591] (Ac-[d2Nal][dPhe(4-Cl)][d3Pal]SK(Nicotinoyl)[dLys(Me2)]L[Lys(iPr)]P[dA]-NH2)			111 ± 2
CC(=O)N[C@H](Cc1ccc2ccccc2c1)C(=O)N[C@H](Cc1ccc(Cl)cc1)C(=O)N[C@H](Cc1cccnc1)C(=O)N[C@@H](CO)C(=O)N[C@@H](CCCCNC(=O)c1cccnc1)C(=O)N[C@H](CCCCNC(=O)c1cccnc1)C(=O)N[C@@H](CC(C)C)C(=O)N[C@@H](CCCCNC1CCCC1)C(=O)N1CCC[C@H]1C(=O)N[C@H](C)C(N)=O [compound 25078] (Ac-[d2Nal][dPhe(4-Cl)][d3Pal]SK(Nicotinoyl)[dK](Nicotinoyl)L[X5]P[dA]-NH2)			147.0
CC(=O)N[C@H](Cc1ccc2ccccc2c1)C(=O)N[C@H](Cc1ccc(Cl)cc1)C(=O)N[C@H](Cc1cccnc1)C(=O)N[C@@H](CO)C(=O)N[C@@H](CCCCNC(=O)c1ccccn1)C(=O)N[C@H](C[C@H]1CC[C@@H](NC(=O)c2cnccn2)CC1)C(=O)N[C@@H](CC(C)C)C(=O)N[C@@H](CCCCNC(C)C)C(=O)N1CCC[C@H]1C(=O)N[C@H](C)C(N)=O [IBR 25897] (Ac-[d2Nal][dPhe(4-Cl)][d3Pal]SK(Picolinoyl)[dAla(cis-4-NHCOPyz-cHex)]L[Lys(iPr)]P[dA]-NH2)	122.8 ± 5.7		
CC(=O)N[C@H](Cc1ccc2ccccc2c1)C(=O)N[C@H](Cc1ccc(Cl)cc1)C(=O)N[C@H](Cc1cccnc1)C(=O)N[C@@H](CO)C(=O)N[C@@H](CCCCNC(C)C)C(=O)N[C@H](CCCCNC(=O)c1cccnc1)C(=O)N[C@@H](CC(C)C)C(=O)N[C@@H](CCCCNC(C)C)C(=O)N1CCC[C@H]1C(=O)N[C@H](C)C(N)=O [compound 24543] (Ac-[d2Nal][dPhe(4-Cl)][d3Pal]S[Lys(iPr)][dK](Nicotinoyl)L[Lys(iPr)]P[dA]-NH2)			132.7
CC(=O)N[C@H](Cc1ccc2ccccc2c1)C(=O)N[C@H](Cc1ccc(Cl)cc1)C(=O)N[C@H](Cc1cccnc1)C(=O)N[C@@H](CO)C(=O)N[C@@H](CCCCNC(=O)c1ccccn1)C(=O)N[C@H](C[C@H]1CC[C@@H](NC(=O)c2ccccn2)CC1)C(=O)N[C@@H](CC(C)C)C(=O)N[C@@H](CCCCNC(C)C)C(=O)N1CCC[C@H]1C(=O)N[C@H](C)C(N)=O [IV-4] (Ac-[d2Nal][dPhe(4-Cl)][d3Pal]SK(Picolinoyl)[X1]L[Lys(iPr)]P[dA]-NH2)	123.0 ± 5.0		

More lines, now with the values ahead:

Wheal Area [mm^2 /10 μg]	Wheal (wheal response) (Table XIV and text, unit not given)	Wheal [mm^2 /10]	SMILES
95.0 ± 0			CC(=O)N[C@H](Cc1ccc2ccccc2c1)C(=O)N[C@H](Cc1ccc(Cl)cc1)C(=O)N[C@H](Cc1cccnc1)C(=O)N[C@@H](CO)C(=O)N[C@@H](CCCCNC(=O)c1ccccn1)C(=O)N[C@H](CCCCNC(=O)c1ccccn1)C(=O)N[C@@H](CC(C)C)C(=O)N[C@@H](CCCCNC(C)C)C(=O)N1CCCC[C@H]1C(=O)N[C@H](C)C(N)=O [compound 25937] (Ac-[d2Nal][dPhe(4-Cl)][d3Pal]SK(Picolinoyl)[dK](Picolinoyl)L[Lys(iPr)][Pip][dA]-NH2)
99.5 ± 4.5	99.5 ± 4.5		CC(=O)N[C@H](Cc1ccc2ccccc2c1)C(=O)N[C@H](Cc1ccc(Cl)cc1)C(=O)N[C@H](Cc1cccnc1)C(=O)N[C@@H](CO)C(=O)N[C@@H](C[C@H]1CC[C@@H](NC(=O)c2cnccn2)CC1)C(=O)N[C@H](CCCCNC(=O)c1ccccn1)C(=O)N[C@@H](CC(C)C)C(=O)N[C@@H](CCCCNC(C)C)C(=O)N1CCC[C@H]1C(=O)N[C@H](C)C(N)=O [compound 26180] (Ac-[d2Nal][dPhe(4-Cl)][d3Pal]S[X2][dK](Picolinoyl)L[Lys(iPr)]P[dA]-NH2)
101.7 ± 5.0			CC(=O)N[C@H](Cc1ccc2ccccc2c1)C(=O)N[C@H](Cc1ccc(Cl)cc1)C(=O)N[C@H](Cc1cccnc1)C(=O)N[C@@H](CO)C(=O)N[C@@H](CCCCNC(=O)c1cccnc1)C(=O)N[C@H](C[C@H]1CC[C@@H](NC(=O)c2cnccn2)CC1)C(=O)N[C@@H](CC(C)C)C(=O)N[C@@H](CCCCNC(C)C)C(=O)N1CCC[C@H]1C(=O)N[C@H](C)C(N)=O [compound 25806] (Ac-[d2Nal][dPhe(4-Cl)][d3Pal]SK(Nicotinoyl)[dAla(cis-4-NHCOPyz-cHex)]L[Lys(iPr)]P[dA]-NH2)
91.0 ± 5.4			CC[C@H](NC(=O)[C@@H](CCCCNC(=O)c1ccccn1)NC(=O)[C@H](CCCCNC(=O)c1ccccn1)NC(=O)[C@H](CO)NC(=O)[C@@H](Cc1cccnc1)NC(=O)[C@@H](Cc1ccc(Cl)cc1)NC(=O)[C@@H](Cc1ccc2ccccc2c1)NC(C)=O)C(=O)N[C@@H](CCCCNC(C)C)C(=O)N1CCC[C@H]1C(=O)N[C@H](C)C(N)=O [compound 25990] (Ac-[d2Nal][dPhe(4-Cl)][d3Pal]SK(Picolinoyl)[dK](Picolinoyl)[Abu][Lys(iPr)]P[dA]-NH2)
		122.2 ± 5.1	CC(=O)N[C@H](Cc1ccc2ccccc2c1)C(=O)N[C@H](Cc1ccc(Cl)cc1)C(=O)N[C@H](Cc1cccnc1)C(=O)N[C@@H](CO)C(=O)N[C@@H](CCCCNC(=O)c1cccnc1)C(=O)N[C@H](CCCCNC(=O)c1cnccn1)C(=O)N[C@@H](CC(C)C)C(=O)N[C@@H](CCCCNC(C)C)C(=O)N1CCC[C@H]1C(=O)N[C@H](C)C(N)=O [compound 25649] (Ac-[d2Nal][dPhe(4-Cl)][d3Pal]SK(Nicotinoyl)[dK](Pyrazinecarbonyl)L[Lys(iPr)]P[dA]-NH2)
119.6 ± 6.6			CCNC(=O)[C@@H]1CCCN1C(=O)[C@H](CCCCNC(C)C)NC(=O)[C@H](CC(C)C)NC(=O)[C@@H](C[C@H]1CC[C@@H](NC(=O)c2cnccn2)CC1)NC(=O)[C@H](CCCCNC(=O)c1ccccn1)NC(=O)[C@H](CO)NC(=O)[C@@H](Cc1cccnc1)NC(=O)[C@@H](Cc1ccc(Cl)cc1)NC(=O)[C@@H](Cc1ccc2ccccc2c1)NC(C)=O [compound 26383] (Ac-[d2Nal][dPhe(4-Cl)][d3Pal]SK(Picolinoyl)[dAla(cis-4-NHCOPyz-cHex)]L[Lys(iPr)]P-NHEt)
129.4 ± 3.3			CC(=O)N[C@H](Cc1ccc2ccccc2c1)C(=O)N[C@H](Cc1ccc(Cl)cc1)C(=O)N[C@H](Cc1cccnc1)C(=O)N[C@@H](CO)C(=O)N[C@@H](Cc1ccc(O)cc1)C(=O)N[C@H](C[C@H]1CC[C@@H](NC(=O)c2cnccn2)CC1)C(=O)N[C@@H](CC(C)C)C(=O)N[C@@H](CCCCNC(C)C)C(=O)N1CCC[C@H]1C(=O)N[C@H](CO)C(N)=O [compound 26365] (Ac-[d2Nal][dPhe(4-Cl)][d3Pal]SY[dAla(cis-4-NHCOPyz-cHex)]L[Lys(iPr)]P[dS]-NH2)
139.8 ± 7.1			CC(=O)N[C@H](Cc1ccc2ccccc2c1)C(=O)N[C@H](Cc1ccc(Cl)c(Cl)c1)C(=O)N[C@H](Cc1cccnc1)C(=O)N[C@@H](CO)C(=O)N[C@@H](CCCCNC(=O)c1ccccn1)C(=O)N[C@H](CCCCNC(=O)c1ccccn1)C(=O)N[C@@H](CC(C)C)C(=O)N[C@@H](CCCCNC(C)C)C(=O)N1CCC[C@H]1C(=O)N[C@H](C)C(N)=O [compound 25807] (Ac-[d2Nal][dPhe(3,4-Cl2)][d3Pal]SK(Picolinoyl)[dK](Picolinoyl)L[Lys(iPr)]P[dA]-NH2)
97.9 ± 2.9			CC(=O)N[C@H](Cc1ccc2ccccc2c1)C(=O)N[C@H](Cc1ccc(Cl)cc1)C(=O)N[C@H](Cc1cccnc1)C(=O)N[C@@H](CO)C(=O)N[C@@H](CCCCNC(=O)c1ccccn1)C(=O)N[C@H](CCCCNC(=O)c1ccccn1)C(=O)N[C@H](C(=O)N[C@@H](CCCCNC(C)C)C(=O)N1CCC[C@H]1C(=O)N[C@H](C)C(N)=O)C(C)C [compound 25934] (Ac-[d2Nal][dPhe(4-Cl)][d3Pal]SK(Picolinoyl)[dK](Picolinoyl)V[Lys(iPr)]P[dA]-NH2)
122.8 ± 5.7			CC(=O)N[C@H](Cc1ccc2ccccc2c1)C(=O)N[C@H](Cc1ccc(Cl)cc1)C(=O)N[C@H](Cc1cccnc1)C(=O)N[C@@H](CO)C(=O)N[C@@H](CCCCNC(=O)c1ccccn1)C(=O)N[C@H](C[C@H]1CC[C@@H](NC(=O)c2cnccn2)CC1)C(=O)N[C@@H](CC(C)C)C(=O)N[C@@H](CCCCNC(C)C)C(=O)N1CCC[C@H]1C(=O)N[C@H](CO)C(N)=O [compound 26348] (Ac-[d2Nal][dPhe(4-Cl)][d3Pal]SK(Picolinoyl)[dAla(cis-4-NHCOPyz-cHex)]L[Lys(iPr)]P[dS]-NH2)
